Columns and labels:
[1] = tested on: acute hepatic insufficiency induced by anti-Fas antibodies; assay: Survival of mice after injection of anti-Fas antibody (fulminant hepatitis); type: in vivo; details: at 24 hours; 6 μg anti-Fas antibody iv; MnTBAP 10 mg/kg 2 hours beforehand; FIG. 3
Description: The injection of these antibodies into mice causes fulminant hepatitis due to a massive apoptosis of the hepatocytes, causing the death of the mice within a few hours following the injection [OGASAWARA et al., Nature, 364, pp. 806-809, (1993); NAGATA, Prog. Mol. Subcell. Biol., 16, pp. 87-103, (1996)].
27 control mice received, by intravenous injection, 6 μg of an anti-Fas monoclonal antibody (clone J02; PHARMINGEN) diluted in 100 μl of physiological saline; a second group of 15 mice received the same treatment, preceded by the administration, 2 hours beforehand, of 10 mg/kg of MnTBAP, as described in Example 1 above; a control group received MnTBAP alone (10 mg/kg).

[2] = known; cited from earlier work
[3] = tested on: acute hepatic insufficiency induced by acetaminophen; assay: Histological study of livers after acetaminophen; type: in vivo; details: mice which received acetaminophen, treated with MnTBAP
Source text: In each of the groups, the livers of several animals were removed, in order to carry out a histological study.

[4] = tested on: acute hepatic insufficiency induced by acetaminophen; assay: Assay of serum transaminases ALAT and ASAT after acetaminophen; type: in vivo, mice; details: MnTBAP 10 mg/kg 2 h before, after 24 hours
Description: The serum transaminases ALAT and ASAT are assayed 12 hours and 24 hours after the administration of acetaminophen.
Since the results risked being biased by the fact that the mice surviving 24 hours after the administration of acetaminophen were probably, regardless of the group involved, those which had the lowest transaminase activity, a second series of experiments were carried out, administering 500 mg/kg of acetaminophen, the other experimental conditions remaining the same. At this dosage, all the mice were still alive after 24 hours.
The results are illustrated by FIGS. 2A and 2B, which represent the ASAT and ALAT activity, respectively, according to the products administered.

[5] = Glutathione peroxidase activity of the mimetic; type: biochemical; details: observed by the inventors
[6] = tested on: hepatocellular insufficiency induced by chronic intoxication with DMNA; assay: Chronic intoxication with DMNA, histological examination; type: in vivo, mice
Description: The inventors also investigated the effects of MnSOD mimetics on hepatocellular insufficiency of toxic origin which can be induced in particular by alcohol, using an experimental model of intoxication with dimethylnitrosamine (DMNA) administered at the dose of 10 mg/kg in mice. This model is similar to intoxication with alcohol because the lesions induced by DMNA and alcohol are identical.
Intraperitoneal administration of 10 mg/kg/day of DMNA three times per week induces, in dogs and rodents, centrolobular and periportal lesions comprising fibrosis at the 4th week, and cirrhosis at the 13th week [RISTELLI et al., J. Biochem., 158, 361-367, (1976); MADDEN et al., Surgery, 68, 260-267, (1970)].

[7] = tested on: acute hepatic insufficiency induced by acetaminophen; assay: Survival of mice after intraperitoneal acetaminophen (acute hepatic insufficiency); details: for rate of survival: 24 hours after acetaminophen 1000 mg/kg ip, FIG. 1

O=C(O)c1ccc(-c2c3nc(c(-c4ccc(C(=O)O)cc4)c4ccc([n-]4)c(-c4ccc(C(=O)O)cc4)c4nc(c(-c5ccc(C(=O)O)cc5)c5ccc2[n-]5)C=C4)C=C3)cc1.[Mn+3] [MnTBAP, Mn(III) tetrakis(5,10,15,20-benzoic acid)porphyrin]
rate of survival [1]: ~60%
catalase activity [2]: known to possess a catalase activity
apoptotic lesions in liver, versus untreated animals [3]: a lot fewer apoptotic lesions
transaminase activities (ASAT, ALAT), fold lower than without MnTBAP ([4]; acetaminophen 500 mg/kg (APAP500)): 10 fold
transaminase activities (ASAT, ALAT), fold lower than without MnTBAP ([4]; acetaminophen 1000 mg/kg (APAP1000)): 6 fold
glutathione peroxidase activity [5]: possessed, in addition, a glutathione peroxidase activity
appearance of hepatic lesions on histological sections ([6]; DMNA 10 mg/kg in mice, different intoxication times): delays the appearance of hepatic lesions
constitution of fibrosis on histological examination ([6]; DMNA 10 mg/kg/day ip three times per week, MnTBAP 10 mg/kg ip 24 hours after each DMNA): prevents the constitution of objectively viable fibrosis
rate of survival ([7]; MnTBAP 10 mg/kg ip 2 h before acetaminophen): ~60%
rate of survival ([7]; MnTBAP 10 mg/kg ip 6 h after acetaminophen): greater than 40%
effect on survival rate, administered preventively ([7]; APAP 1000 mg/kg, 2 hours before (P)): increases the survival rate in a manner at least equal to NAC
activity on survival, curative versus preventive administration ([7]; APAP 1000 mg/kg, 6 hours after (C) or 2 hours before (P)): active when it is administered curatively
activity on survival by the oral route ([7]; APAP 1000 mg/kg, per os): active
percentage of surviving animals ([7]; Group II: MnTBAP 10 mg/kg alone, no APAP, time 0 h): 100%
percentage of surviving animals ([7]; Group II: MnTBAP 10 mg/kg alone, no APAP, time 6 h): 100%
percentage of surviving animals ([7]; Group II: MnTBAP 10 mg/kg alone, no APAP, time 8 h): 100%
percentage of surviving animals ([7]; Group II: MnTBAP 10 mg/kg alone, no APAP, time 9 h): 100%
percentage of surviving animals ([7]; Group II: MnTBAP 10 mg/kg alone, no APAP, time 10 h): 100%
percentage of surviving animals ([7]; Group II: MnTBAP 10 mg/kg alone, no APAP, time 11 h): 100%
percentage of surviving animals ([7]; Group II: MnTBAP 10 mg/kg alone, no APAP, time 12 h): 100%
percentage of surviving animals ([7]; Group II: MnTBAP 10 mg/kg alone, no APAP, time 13 h): 100%
percentage of surviving animals ([7]; Group II: MnTBAP 10 mg/kg alone, no APAP, time 14 h): 100%
percentage of surviving animals ([7]; Group II: MnTBAP 10 mg/kg alone, no APAP, time 15 h): 100%
percentage of surviving animals ([7]; Group II: MnTBAP 10 mg/kg alone, no APAP, time 16 h): 100%
percentage of surviving animals ([7]; Group II: MnTBAP 10 mg/kg alone, no APAP, time 17 h): 100%
percentage of surviving animals ([7]; Group II: MnTBAP 10 mg/kg alone, no APAP, time 18 h): 100%
percentage of surviving animals ([7]; Group II: MnTBAP 10 mg/kg alone, no APAP, time 20 h): 100%
percentage of surviving animals ([7]; Group II: MnTBAP 10 mg/kg alone, no APAP, time 22 h): 100%
percentage of surviving animals ([7]; Group II: MnTBAP 10 mg/kg alone, no APAP, time 24 h): 100%
percentage of surviving animals ([7]; Group IX: APAP 1000 mg/kg, MnTBAP 50 mg/kg (P) per os, time 0 h): 100%
percentage of surviving animals ([7]; Group IX: APAP 1000 mg/kg, MnTBAP 50 mg/kg (P) per os, time 6 h): 100%
percentage of surviving animals ([7]; Group IX: APAP 1000 mg/kg, MnTBAP 50 mg/kg (P) per os, time 8 h): 88.8%
percentage of surviving animals ([7]; Group IX: APAP 1000 mg/kg, MnTBAP 50 mg/kg (P) per os, time 9 h): 88.8%
percentage of surviving animals ([7]; Group IX: APAP 1000 mg/kg, MnTBAP 50 mg/kg (P) per os, time 10 h): 88.8%
percentage of surviving animals ([7]; Group IX: APAP 1000 mg/kg, MnTBAP 50 mg/kg (P) per os, time 11 h): 88.8%
percentage of surviving animals ([7]; Group IX: APAP 1000 mg/kg, MnTBAP 50 mg/kg (P) per os, time 12 h): 88.8%
percentage of surviving animals ([7]; Group IX: APAP 1000 mg/kg, MnTBAP 50 mg/kg (P) per os, time 13 h): 88.8%
percentage of surviving animals ([7]; Group IX: APAP 1000 mg/kg, MnTBAP 50 mg/kg (P) per os, time 14 h): 88.8%
percentage of surviving animals ([7]; Group IX: APAP 1000 mg/kg, MnTBAP 50 mg/kg (P) per os, time 15 h): 88.8%
percentage of surviving animals ([7]; Group IX: APAP 1000 mg/kg, MnTBAP 50 mg/kg (P) per os, time 16 h): 88.8%
percentage of surviving animals ([7]; Group IX: APAP 1000 mg/kg, MnTBAP 50 mg/kg (P) per os, time 17 h): 77.7%
percentage of surviving animals ([7]; Group IX: APAP 1000 mg/kg, MnTBAP 50 mg/kg (P) per os, time 18 h): 66.6%
percentage of surviving animals ([7]; Group IX: APAP 1000 mg/kg, MnTBAP 50 mg/kg (P) per os, time 20 h): 66.6%
percentage of surviving animals ([7]; Group IX: APAP 1000 mg/kg, MnTBAP 50 mg/kg (P) per os, time 22 h): 66.6%
percentage of surviving animals ([7]; Group IX: APAP 1000 mg/kg, MnTBAP 50 mg/kg (P) per os, time 24 h): 66.6%
percentage of surviving animals ([7]; Group V: APAP 1000 mg/kg, MnTBAP 10 mg/kg (P), time 0 h): 100%
percentage of surviving animals ([7]; Group V: APAP 1000 mg/kg, MnTBAP 10 mg/kg (P), time 6 h): 100%
percentage of surviving animals ([7]; Group V: APAP 1000 mg/kg, MnTBAP 10 mg/kg (P), time 8 h): 100%
percentage of surviving animals ([7]; Group V: APAP 1000 mg/kg, MnTBAP 10 mg/kg (P), time 9 h): 91.4%
percentage of surviving animals ([7]; Group V: APAP 1000 mg/kg, MnTBAP 10 mg/kg (P), time 10 h): 88.6%
percentage of surviving animals ([7]; Group V: APAP 1000 mg/kg, MnTBAP 10 mg/kg (P), time 11 h): 77.1%
percentage of surviving animals ([7]; Group V: APAP 1000 mg/kg, MnTBAP 10 mg/kg (P), time 12 h): 74.3%
percentage of surviving animals ([7]; Group V: APAP 1000 mg/kg, MnTBAP 10 mg/kg (P), time 13 h): 74.3%
percentage of surviving animals ([7]; Group V: APAP 1000 mg/kg, MnTBAP 10 mg/kg (P), time 14 h): 71.4%
percentage of surviving animals ([7]; Group V: APAP 1000 mg/kg, MnTBAP 10 mg/kg (P), time 15 h): 71.4%

Reference: patent US20030118577A1, “Use of analogues of superoxide dismutase for treating hepatocellular insufficiencies” (priority 2000, published 2003)
